Source: ChEMBL document CHEMBL1201862, “PubChem BioAssay data set” (2004)
Activity calls are given as the source filed them.

Columns and labels:
[1] = biological target: T1, Probable nicotinate-nucleotide adenylyltransferase (Staphylococcus aureus (strain N315), UniProt P65502); assay type: functional, Staphylococcus aureus subsp. aureus N315; details: read-out: IC50_Mean;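 on IC50 Mean: confirmatory dose-response retesting of NadD inhibitor hits first found in an ultra-high-throughput screen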
[2] = biological target: T1, Probable nicotinate-nucleotide adenylyltransferase; assay type: functional, Staphylococcus aureus subsp. aureus N315
[3] = biological target: T2, Low molecular weight phosphotyrosine protein phosphatase (Homo sapiens, UniProt P24666); assay type: functional; details: read-out: IC50_Mean
T2 sequence (P24666 whole entry): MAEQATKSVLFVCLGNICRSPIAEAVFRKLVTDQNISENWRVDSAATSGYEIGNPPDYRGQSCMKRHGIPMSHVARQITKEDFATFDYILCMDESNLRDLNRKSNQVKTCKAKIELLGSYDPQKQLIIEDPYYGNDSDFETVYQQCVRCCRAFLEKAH

HEK293 [4] = assay: cells; assay type: functional, cell-based; details: Homo sapiens
[5] = biological target: T3, Small ubiquitin-related modifier 1 (Homo sapiens, UniProt P63165); assay: SUMO1 protein-protein binding blockers, potency – biochemical, FRET, dose response (AID 624383); assay type: functional; details: read-out: IC50_Mean
[6] = biological target: T4, Tyrosine-protein phosphatase non-receptor type 5 (Homo sapiens, UniProt P54829); assay: PTPN5 enzyme inhibition – biochemical, fluorescence intensity, uHTS hits, confirmation (AID 602372); assay type: functional; details: read-out: IC50_Mean
T4 sequence (P54829 whole entry): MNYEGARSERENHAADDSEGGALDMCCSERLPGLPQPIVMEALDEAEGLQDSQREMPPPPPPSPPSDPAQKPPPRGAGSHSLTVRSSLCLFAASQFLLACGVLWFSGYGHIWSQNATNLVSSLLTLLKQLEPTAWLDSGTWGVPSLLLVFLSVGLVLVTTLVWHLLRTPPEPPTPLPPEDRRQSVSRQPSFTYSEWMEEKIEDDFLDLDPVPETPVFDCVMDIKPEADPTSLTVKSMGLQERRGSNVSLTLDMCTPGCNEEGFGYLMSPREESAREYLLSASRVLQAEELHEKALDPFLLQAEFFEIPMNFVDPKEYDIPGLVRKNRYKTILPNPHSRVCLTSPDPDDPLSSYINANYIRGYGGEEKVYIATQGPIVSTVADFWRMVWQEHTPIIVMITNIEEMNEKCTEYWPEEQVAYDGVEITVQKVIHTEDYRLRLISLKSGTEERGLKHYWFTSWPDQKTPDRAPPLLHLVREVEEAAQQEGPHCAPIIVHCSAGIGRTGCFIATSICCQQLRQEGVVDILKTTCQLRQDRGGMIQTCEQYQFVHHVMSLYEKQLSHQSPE

[7] = biological target: T5, Carboxy-terminal domain RNA polymerase II polypeptide A small phosphatase 1 (Homo sapiens, UniProt Q9GZU7); assay: CTDSP1 inhibitors, concentration-response, biochemical, absorbance readout, ultra-high-throughput screen actives (AID 540297); assay type: functional
T5 sequence (Q9GZU7 whole entry): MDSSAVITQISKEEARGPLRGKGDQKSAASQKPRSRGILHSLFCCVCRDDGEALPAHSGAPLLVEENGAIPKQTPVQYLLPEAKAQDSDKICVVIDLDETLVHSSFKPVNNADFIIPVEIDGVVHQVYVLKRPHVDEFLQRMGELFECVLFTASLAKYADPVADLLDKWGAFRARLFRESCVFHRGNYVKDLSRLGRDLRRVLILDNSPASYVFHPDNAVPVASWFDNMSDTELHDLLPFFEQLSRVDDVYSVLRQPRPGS

HEK293 [8] = assay: NOD2 signaling inhibitors in MDP-stimulated cells, cell-based, uHTS, luminescence (AID 2001); assay type: functional; details: Homo sapiens
[9] = biological target: Nucleotide-binding oligomerization domain-containing protein 2 (Homo sapiens, UniProt Q9HC29); assay: inhibition of NOD2-driven NF-kB reporter – cell-based, luminescence, uHTS, HEK293 (AID 1566); assay type: functional
[10] = biological target: T3, Small ubiquitin-related modifier 1; assay: SUMO1 protein interaction blockers, potency – biochemical, fluorescence polarization, uHTS hits, dose response (AID 624382); assay type: functional; details: read-out: IC50_Mean
Caspase-8 = Caspase-8 (Homo sapiens, UniProt Q14790); assay: inhibitors of purified CASP8 protease – biochemical, Z-IETD-R110 fluorescence, cherry-picked samples, selectivity assay for caspase-6 inhibitor project, dose response (AID 743294)
[11] = biological target: T6, Tyrosine-protein phosphatase non-receptor type 11 (Homo sapiens, UniProt Q06124); assay: PTPN11 enzyme inhibitors – biochemical, selectivity assay for STEP inhibitor project, dose response (AID 602367); assay type: functional; details: read-out: IC50_Mean
T6 sequence (Q06124 whole entry): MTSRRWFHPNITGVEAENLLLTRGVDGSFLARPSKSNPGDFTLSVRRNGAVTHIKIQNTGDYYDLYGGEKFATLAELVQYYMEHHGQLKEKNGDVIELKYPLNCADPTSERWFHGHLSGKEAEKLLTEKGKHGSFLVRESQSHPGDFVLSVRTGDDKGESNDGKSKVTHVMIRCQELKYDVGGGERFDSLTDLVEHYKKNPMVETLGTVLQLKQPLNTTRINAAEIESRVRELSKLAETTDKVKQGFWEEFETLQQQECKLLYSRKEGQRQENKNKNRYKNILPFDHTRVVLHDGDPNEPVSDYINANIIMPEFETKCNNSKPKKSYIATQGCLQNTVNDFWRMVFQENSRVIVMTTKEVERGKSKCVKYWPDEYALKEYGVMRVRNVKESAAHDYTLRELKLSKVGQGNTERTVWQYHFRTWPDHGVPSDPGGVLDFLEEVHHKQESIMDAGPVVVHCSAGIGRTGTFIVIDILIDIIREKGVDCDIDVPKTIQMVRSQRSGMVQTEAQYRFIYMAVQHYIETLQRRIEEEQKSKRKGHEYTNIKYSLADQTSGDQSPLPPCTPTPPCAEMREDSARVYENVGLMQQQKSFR

HEK293 [12] = assay: cells; assay type: functional, cell-based; details: Homo sapiens; remark: listed apart in the source
[13] = biological target: T2, Low molecular weight phosphotyrosine protein phosphatase; assay type: functional; details: read-out: IC50_Mean; remark: listed apart in the source
Caspase-6 = biological target: T7, Caspase-6 (Homo sapiens, UniProt P55212); assay: inhibition of CASP6 peptide cleavage – biochemical, VEID-R110 fluorescence, cherry-pick, dose response (AID 720632)
T7 sequence (P55212 whole entry): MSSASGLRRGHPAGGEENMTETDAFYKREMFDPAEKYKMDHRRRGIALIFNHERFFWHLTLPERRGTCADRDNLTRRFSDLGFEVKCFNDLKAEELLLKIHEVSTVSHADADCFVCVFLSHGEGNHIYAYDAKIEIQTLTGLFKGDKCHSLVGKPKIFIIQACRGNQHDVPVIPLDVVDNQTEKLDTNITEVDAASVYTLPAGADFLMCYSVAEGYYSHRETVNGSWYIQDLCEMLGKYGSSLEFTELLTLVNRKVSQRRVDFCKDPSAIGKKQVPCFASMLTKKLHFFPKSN

[14] = biological target: Dual specificity protein phosphatase 3 (Homo sapiens, UniProt P51452); assay: VHR phosphatase inhibition, dose response, selectivity assay for STEP inhibitor project, biochemical (AID 602374); assay type: functional; details: read-out: IC50_Mean
HEK293 [15] = assay: inhibition of NOD1-driven NF-kB reporter – cell-based, luminescence, uHTS, primary screen (AID 1578); assay type: functional; details: Homo sapiens

T3 sequence (P63165 whole entry): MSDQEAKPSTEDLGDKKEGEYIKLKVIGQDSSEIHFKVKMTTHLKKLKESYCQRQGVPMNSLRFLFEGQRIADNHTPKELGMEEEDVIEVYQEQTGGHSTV
T1 sequence (P65502 whole entry): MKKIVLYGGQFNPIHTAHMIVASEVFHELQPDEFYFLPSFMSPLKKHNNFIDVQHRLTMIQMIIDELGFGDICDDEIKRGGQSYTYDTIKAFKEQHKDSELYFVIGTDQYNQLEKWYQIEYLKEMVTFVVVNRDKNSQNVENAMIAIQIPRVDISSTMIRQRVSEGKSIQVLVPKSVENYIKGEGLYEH
Sequence of Nucleotide-binding oligomerization domain-containing protein 2 (Q9HC29 whole entry, the tested form may be a part): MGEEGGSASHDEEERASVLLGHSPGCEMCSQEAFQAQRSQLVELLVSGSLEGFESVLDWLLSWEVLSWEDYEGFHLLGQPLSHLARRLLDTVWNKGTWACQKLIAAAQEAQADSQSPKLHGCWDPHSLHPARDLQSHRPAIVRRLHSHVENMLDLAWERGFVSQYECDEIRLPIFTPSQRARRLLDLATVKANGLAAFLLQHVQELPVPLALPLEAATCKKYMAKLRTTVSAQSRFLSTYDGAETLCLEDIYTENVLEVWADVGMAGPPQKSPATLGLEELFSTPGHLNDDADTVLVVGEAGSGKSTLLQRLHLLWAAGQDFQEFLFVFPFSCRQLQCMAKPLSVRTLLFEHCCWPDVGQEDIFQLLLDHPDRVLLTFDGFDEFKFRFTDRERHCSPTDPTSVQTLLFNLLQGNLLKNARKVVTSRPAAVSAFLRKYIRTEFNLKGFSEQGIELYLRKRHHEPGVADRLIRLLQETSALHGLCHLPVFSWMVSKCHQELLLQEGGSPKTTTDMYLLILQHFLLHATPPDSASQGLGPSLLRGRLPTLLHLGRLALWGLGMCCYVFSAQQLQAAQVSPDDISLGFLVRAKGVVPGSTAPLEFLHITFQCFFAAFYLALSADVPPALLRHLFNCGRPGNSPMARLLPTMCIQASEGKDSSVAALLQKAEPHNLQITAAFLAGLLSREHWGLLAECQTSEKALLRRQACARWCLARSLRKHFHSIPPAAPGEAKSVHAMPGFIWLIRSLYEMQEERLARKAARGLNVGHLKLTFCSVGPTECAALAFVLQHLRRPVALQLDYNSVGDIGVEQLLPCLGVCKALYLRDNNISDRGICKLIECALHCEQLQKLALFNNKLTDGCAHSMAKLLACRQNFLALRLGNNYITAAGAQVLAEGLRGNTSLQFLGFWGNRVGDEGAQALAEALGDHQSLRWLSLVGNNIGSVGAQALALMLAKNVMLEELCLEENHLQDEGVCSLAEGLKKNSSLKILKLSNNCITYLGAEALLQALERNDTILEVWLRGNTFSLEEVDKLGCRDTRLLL
Sequence of Dual specificity protein phosphatase 3 (P51452 whole entry): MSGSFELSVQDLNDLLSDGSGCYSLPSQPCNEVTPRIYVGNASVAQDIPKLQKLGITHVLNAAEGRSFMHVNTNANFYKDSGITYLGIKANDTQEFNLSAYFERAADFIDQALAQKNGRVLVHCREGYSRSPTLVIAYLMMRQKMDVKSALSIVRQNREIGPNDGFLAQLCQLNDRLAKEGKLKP
Sequence of Caspase-8 (Q14790 217-374 limits assumed): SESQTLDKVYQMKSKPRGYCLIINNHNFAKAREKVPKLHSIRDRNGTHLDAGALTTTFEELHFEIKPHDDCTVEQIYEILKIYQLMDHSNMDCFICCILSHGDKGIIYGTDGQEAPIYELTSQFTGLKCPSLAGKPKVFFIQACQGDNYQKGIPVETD
Sequence of Caspase-8 (Q14790 385-479 limits assumed): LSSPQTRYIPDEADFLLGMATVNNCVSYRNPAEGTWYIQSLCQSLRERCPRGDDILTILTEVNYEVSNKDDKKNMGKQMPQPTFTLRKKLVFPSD

Structure (SMILES) | IC50 [1] | IC50 [2] | IC50 [3] | IC50 (HEK293 [4]) | IC50 [5] | IC50 [6] | IC50 [7] | IC50 (HEK293 [8]) | EC50 [9] | IC50 [10] | AC50 (Caspase-8) | IC50 [11] | IC50 (HEK293 [12]) | IC50 [13] | AC50 (Caspase-6) | IC50 [14] | EC50 (HEK293 [15])
Cc1ccc(-c2cc(C(=O)Nc3ccc(S(=O)(=O)Nc4onc(C)c4C)cc3)c3ccccc3n2)cc1 | 20.1 µM (active) | 5.56 µM (active) | – | – | – | – | – | – | – | – | – | – | – | – | – | – | –
Cc1c(CCC(=O)O)c(=O)oc2c(C)c(OCc3ccccc3Cl)ccc12 | – | – | 6.36 µM (active) | 9.68 µM (active) | 9.18 µM (active) | 2.94 µM (active) | 1.99 µM (active) | > 20 µM (inactive) | 2.94 µM (active) | > 66.6 µM (inactive) | > 70 µM (inactive) | 1.55 µM (active) | > 20 µM (inactive) | 4.25 µM (active) | 1.38 µM (active) | 1.56 µM (active) | > 20 µM (inactive)
